{"source": "patent US7662626B2", "about": "“Cells and methods for estimation of effects on neurological dysfunction” (Kabushiki Kaisha Toshiba, priority 2005, dated 2010)", "assay_type_in_all_cases": "cell-based, mouse", "key": {"[1]": {"test_system": "TH gene, Cdc42 gene and tau gene", "assay": "Marker gene expression (TH, Cdc42, tau) by reverse transcription PCR in selected cell strains", "settings": "selected two cell strains cultured with vs without 2,3,7,8-TCDD (FIG. 3)", "description": "Total RNAs were extracted with an RNeasy kit after culturing the selected two cell strains in DF1:1 medium supplemented with 2,3,7,8-TCDD, and cDNA was synthesized by a reverse transcription reaction. Subsequently, using cDNA synthesized above as a template and ExTaq (manufactured by Takara Bio Inc.), expression of the TH gene was confirmed by 25 cycles of PCR comprising one cycle with denaturation of 94° C./30 second, annealing of 60° C./30 seconds and extension of 72° C./30 seconds. Also, expression of the Cdc42 gene and tau gene was confirmed by 25 cycles of PCR comprising one cycle with denaturation of 94° C./30 second, annealing of 58° C./30 seconds and extension of 72° C./30 seconds. A forward primer 5′-CCACggTgTACTggTTCACT (SEQ ID NO: 7) and a reverse primer 5′-ggCATAgTTCCTgAgCTTgT (SEQ ID NO: 8) were used as primers for the TH gene; a forward primer 5′-gATACTgCAgggCAAgAgg (SEQ ID NO: 9) and a reverse primer 5′-CAggCACCCACTTTTCTTTC (SEQ ID NO: 10) were used as primers for the Cdc42 gene; and a forward primer 5′-TCCggAgAACgAAgCggCTACAgC (SEQ ID NO: 11) and a reverse primer 5′-TgCTgAggTgCCgTggAgATgTgT (SEQ ID NO: 12) were used as primers for the tau gene. As a result, the amounts of expression of the TH gene, Cdc42 gene and tau gene were increased in any of the two selected cell strains cultured with 2,3,7,8-TCDD as compared with the cell strains cultured without 2,3,7,8-TCDD (FIG. 3)."}, "Neuro2a": {"test_system": "Neuro2a", "assay": "CYP1A1 gene expression by reverse transcription PCR in parent Neuro2a", "settings": "30 nM, 24 hours; parent Neuro2a (no AhR gene detected)", "description": "After cultivating these cell strains in DF1:1 suppremented with or without 30 nM of 2,3,7,8-TCDD for 24 hours, total RNAs were extracted from the cells. An RNeasy kit was used for extraction of total RNA. The extracted RNA was reverse-transcripted using an oligo(dT) primer. Subsequently, expression of CYP1A1 gene was confirmed by 25 cycles of PCR comprising 1 cycle with denaturation of 94° C./30 second, annealing of 55° C./30 seconds and extension of 72° C./30 seconds. CYP1A1 gene is one of genes, of which expression thereof is induced by binding of the aryl hydrocarbon receptor activated by binding of a ligand to XRE (xenobiotic responsive element) on DNAs. A forward primer 5′-CCCACAgCACCACAAgAgATA (SEQ ID NO: 5) and a reverse primer 5′-AAgTAggAggCACAATgTC (SEQ ID NO: 6) were used as primers for PCR. As a result, expression of CYP1A1 gene was increased by adding 2,3,7,8-TCDD in both of two selected cell strains. While the same experiment was performed with respect to Neuro2a, no increase of the amount of expression of CYP1A1 gene was observed."}, "[2]": {"test_system": "tau protein and TH protein", "assay": "Marker protein expression (tau, TH) by western blotting in selected cell strains", "settings": "10 nM, three weeks, with vs without; selected two cell strains (FIG. 4)", "description": "After the selected two cell strains were cultured in DF1:1 medium supplemented with 10 nM of 2,3,7,8-TCDD for three weeks, the amounts of expression of the tau protein and TH protein were confirmed by extracting the proteins and by conducting western blotting with a tau protein antibody and TH protein antibody. The amounts of expression of the tau protein and TH protein were increased in any of the selected two cell strains as compared with neurotoxicity responsive cells cultured without adding 2,3,7,8-TCDD (FIG. 4)."}, "[3]": {"test_system": "Neuro2a transfected with aryl hydrocarbon receptor-expressing nucleic acid pcDNA4-rAhR", "assay": "Neurite outgrowth (cell morphology) of cell strains transfected with pcDNA4-rAhR", "settings": "10 nM, DF1:1 medium, 1 to 3 weeks; two selected AhR-transfected Neuro2a strains (FIG. 2)", "description": "(3) Cells in which neurites outgrow this observed by adding ligand of the aryl hydrocarbon receptor, are selected from the cell strains obtained in (c). Cells into which the receptor-expressing nucleic acid is transfected are cultured in a conventional culture medium such as DF1:1 medium containing 10% fetal bovine serum with or without adding ligand of the aryl hydrocarbon receptor for 1 to 3 weeks. And morphological changes are compared between the two types of the cells described above. The number of the neurite from the cell, the length of the neurite, and the number of the cells in which the neurite is outgrown are compared when the morphology changes of the cell strain are used as indications. It is more preferable that comparison of increase of a proportion of a number of cells with neurite having a twofold length of a diameter of the each cells, to the total cells which are in contacted with a ligand of aryl hydrocarbon receptor. The cells in which the neurite is outgrown by adding ligand of the aryl hydrocarbon receptor are selected, by comparing the cells in which the receptor-expressing nucleic acid is transfected by adding the ligand of the aryl hydrocarbon receptor with the cells in which the receptor-expressing nucleic acid is transfected without adding the ligand of the aryl hydrocarbon receptor. […]"}, "[4]": {"test_system": "aryl hydrocarbon receptor", "assay": "CYP1A1 gene expression by reverse transcription PCR in selected cell strains", "settings": "30 nM, 24 hours, with vs without; both selected cell strains", "source_text": "(2) Cells functionally expressed the aryl hydrocarbon receptor protein are selected from the cells obtained in (c). A gene known to be able to induce expression of the gene through activation of the aryl hydrocarbon receptor is used as a marker as an indication of the selection. Examples of the gene include genes for CYP1A1, UGT glycosyltransferase 1 family, polypeptide A6 (UGT1A6) or glutathione-S-transferase (GST). The selection procedure includes, for example, culturing the cells to be selected in a conventional culture medium such as DF1:1 medium containing 10% of fetal bovine serum for 1 to 5 days; culturing the cells in a conventional culture medium such as DF1:1 medium containing 10% of fetal bovine serum for 1 week by adding a ligand of aryl hydrocarbon receptor; and extracting RNAs from the cells to detect the expression of the marker gene by a known RNA detection method such as northern hybridization and reverse transcription PCR. Alternatively, the protein translated from the marker gene is detected by a known detection method such as western blotting. The cells confirmed to induce the expression of the marker gene by this confirmation are selected.\nAfter cultivating these cell strains in DF1:1 suppremented with or without 30 nM of 2,3,7,8-TCDD for 24 hours, total RNAs were extracted from the cells. An RNeasy kit was used for extraction of total RNA. […]"}}}
{"smiles": "Clc1cc2c(cc1Cl)Oc1cc(Cl)c(Cl)cc1O2", "note": "[2,3,7,8-TCDD, 2,3,7,8-tetrachlorodibenzo-p-dioxin]", "values": [{"measurement": "amount of expression of the Cdc42 gene", "setting": "[1]", "result": "increased"}, {"measurement": "amount of expression of the TH gene", "setting": "[1]", "result": "increased"}, {"measurement": "amount of expression of the tau gene", "setting": "[1]", "result": "increased"}, {"measurement": "amount of expression of CYP1A1 gene", "setting": "Neuro2a", "result": "no increase"}, {"measurement": "amount of expression of the TH protein", "setting": "[2]", "result": "increased"}, {"measurement": "amount of expression of the tau protein", "setting": "[2]", "result": "increased"}, {"measurement": "neurite outgrowth (morphology of the cell)", "setting": "[3]", "result": "particularly high proportion of neurite outgrowth"}, {"measurement": "expression of CYP1A1 gene", "setting": "[4]", "result": "increased"}]}
